Key:
[1] = test system: primary human hepatocytes (PHH); assay: CCK-8 cytotoxicity assay in primary human hepatocytes; assay type: cell-based; conditions: 50 µM and 100 µM, 24 h
Procedure: (§1) PHHs were purchased from Primacyt Cell Culture Technology GmbH (Schwerin, Germany). Hepatocytes were thawed using hepatocyte recovery medium (Primacyt, Schwerin, Germany) and cells were centrifuged (10 min, 100× g, 20 °C) to remove supernatants. Cells were incubated with 5% FBS-containing plating medium for 6 h, then with FBS-free maintenance medium at 37 °C with 5% CO2 (both media were obtained from Primacyt, Schwerin, Germany) on Matrigel-coated membrane inserts (Costar Transwell-COL PTFE permeable supports, 6.5 mm inserts, 0.4 µm pore size, 24-well plate, Corning Incorporated, Kennebunk, ME, USA) for the CCK-8 and Amplex Red procedures. Maintenance medium without FBS was replaced every 24 h and the cells were incubated.
The possible cytotoxic effects of the inhibitors MI-1851 and MI-2415 (structures provided in Figure 1) in different concentrations on IPEC-J2 and those of inhibitor MI-2415 on PHHs were assessed for 24 h by performing the CCK-8 assay (Dojindo Molecular Technologies, Rockville, MD, USA). […] Following three times washing of the wells with PBS, 10 µL CCK-8 reagent mixed with 100 µL fresh Williams’ Medium E was added and the absorbance values were measured at 450 nm using the SpectraMax iD3 microplate reader (Molecular Devices, San José, CA, USA) after 2 h incubation. […]

[2] = target: T1, Human serum albumin (HSA) (Homo sapiens, UniProt P02768); assay: fluorescence quenching of human serum albumin; assay type: binding; conditions: HSA 2 μM, ligand 1-10 μM, PBS pH 7.4, λex 295 nm
T1 construct: purchased Merck (Darmstadt, Germany) A1653
T1 sequence (P02768 25-609): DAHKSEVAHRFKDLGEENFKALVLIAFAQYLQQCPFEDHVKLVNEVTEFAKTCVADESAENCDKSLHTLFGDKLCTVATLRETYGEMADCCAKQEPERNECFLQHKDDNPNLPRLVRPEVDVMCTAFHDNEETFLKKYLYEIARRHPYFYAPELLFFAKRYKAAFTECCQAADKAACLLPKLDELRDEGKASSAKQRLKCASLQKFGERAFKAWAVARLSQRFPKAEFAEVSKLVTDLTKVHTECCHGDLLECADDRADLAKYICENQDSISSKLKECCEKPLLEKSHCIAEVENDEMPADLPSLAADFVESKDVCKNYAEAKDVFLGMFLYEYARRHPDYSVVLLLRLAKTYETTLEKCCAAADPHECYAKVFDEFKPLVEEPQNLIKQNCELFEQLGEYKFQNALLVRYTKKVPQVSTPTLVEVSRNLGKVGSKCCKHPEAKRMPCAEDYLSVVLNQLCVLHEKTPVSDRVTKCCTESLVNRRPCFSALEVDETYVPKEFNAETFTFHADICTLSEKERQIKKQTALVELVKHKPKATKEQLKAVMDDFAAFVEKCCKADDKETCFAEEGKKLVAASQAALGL
Procedure: Human serum albumin (HSA) (product code: A1653) and α1-acid glycoprotein (AGP) (product code: G9885) were purchased from Merck (Darmstadt, Germany) and used as received. Fluorescence emission spectra were recorded using a Hitachi F-4500 fluorometer (Tokyo, Japan), while absorption spectra were collected by employing a Hitachi U-3900 UV–Vis spectrophotometer (Tokyo, Japan). Before the evaluation of fluorescence data, the inner-filter effects of MI-1851 and MI-2415 were corrected based on the following equation [23, 24]:(1) Icor=Iobs×e^(Aex+Aem)/2 where Icor and Iobs are the corrected and observed emission intensities, respectively; and Aex and Aem are the absorbance of the MI compounds tested at the excitation and emission wavelengths used, respectively.
To examine the potential interaction of inhibitor MI-2415 with HSA, increasing levels of the ligand (final concentrations: 0, 1, 2, 3, 4, 7, and 10 μM) were added to a standard amount of the protein (2 μM) in PBS (pH 7.4), and then the emission spectra were recorded (λex = 295 nm, λem = 340 nm). Furthermore, the quenching effects of inhibitors MI-1851 and MI-2415 (both 0, 0.25, 0.5, 1, 1.5, 2, and 2.5 μM) were also tested on the emission signal of AGP (2 μM) in PBS (λex = 285 nm, λem = 337 nm).

[3] = test system: primary human hepatocytes (PHH); assay: DCFH-DA intracellular ROS assay in primary human hepatocytes; assay type: cell-based; conditions: 50 µM and 100 µM, 24 h
Procedure: as §1
The ability of inhibitors MI-1851 and MI-2415 to induce oxidative stress (ROS) within IPEC-J2 as well as of compound MI-2415 within PHHs was investigated with 2,7-dichloro-dihydro-fluorescein diacetate (DCFH2-DA). DCFH2-DA is a non-fluorescent compound that can passively diffuse across cell membranes due to its lipophilic nature. […] A Victor X2 2030 (Perkin Elmer, Waltham, MA, USA) was used to determine the fluorescence values of the samples (excitation wavelength: 485 nm, emission wavelength: 535 nm), which are directly proportional to the ROS generation.

[4] = test system: primary human hepatocytes (PHH); assay: Amplex Red extracellular H2O2 assay in primary human hepatocytes; assay type: cell-based; conditions: 50 µM and 100 µM, 24 h
Procedure: as §1
To evaluate the cellular responses of IPEC-J2 to the inhibitors MI-1851 and MI-2415, and those of PHHs to MI-2415, at different concentration levels, the Amplex Red hydrogen peroxide assay kit (Invitrogen, Molecular Probes, Budapest, Hungary) in combination with horseradish peroxidase has been used. In the presence of hydrogen peroxide (in 1:1 stoichiometry), Amplex Red produces a red fluorescent oxidation product, resorufin. The IPEC-J2 cells and PHHs were treated for 24 h with the inhibitor(s) at different concentration levels (50 and 100 μM). […]

[5] = target: T1, Human serum albumin (HSA); conditions: same experimental model, earlier study; cited from earlier work
[6] = test system: primary human hepatocytes (PHH); parameters: method as in PMID 35594709; conditions: 100 µM; cited from earlier work

Compound | cell death in PHHs [1] | effect on emission intensity of HSA at 340 nm [2] | intracellular ROS formation in PHHs [3] | extracellular H2O2 production in PHHs [4] | effect on emission signal of HSA [5] | extracellular hydrogen peroxide production in PHHs [6]
CC(C)(C)[C@H](NC(=O)[C@H](CCONC(=N)N)NC(=O)Cc1ccc(CNC(=N)N)cc1)C(=O)N[C@@H](CCONC(=N)N)C(=O)NCc1ccc2c(c1)CN=C2N [MI-2415] | did not lead to significant cell death | did not influence the emission intensity of HSA | did not cause a redox imbalance | did not cause a redox imbalance |  | 
CC(C)(C)[C@H](NC(=O)[C@H](CCONC(=N)N)NC(=O)Cc1ccc(CNC(=N)N)cc1)C(=O)N[C@@H](CCONC(=N)N)C(=O)NCc1ccc(C(=N)N)cc1 [MI-1851] |  |  |  |  | did not affect the emission signal of HSA | lacking any significant effect
